# Results as given in patent US4015974A, “Amido phosphorothiolates” (priority 1972, dated 1977).
# Assays:
# Format in all cases: in vivo
# [1] = tested on: barnyard grass (Echinochloa crus-galli); experiment: Pre-emergence application, herbicidal effect on barnyard grass (Table 1); parameters: key: 0: not damaged; 5: completely killed; conditions: 20 days after application, score 0-5
# How it was run: (§1)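 Soil treatment after sowing, pre-emergence; wettable powder formulations diluted with water. Greenhouse, 20 d. Score 0 = no damage, 5 = complete kill.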
# [2] = tested on: large crabgrass (Digitaria sanguinalis); experiment: Pre-emergence application, herbicidal effect on large crabgrass (Table 1); parameters: key: 0: not damaged; 5: completely killed; conditions: 20 days after application, score 0-5
# How it was run: as §1
# [3] = tested on: radish; experiment: Pre-emergence application, herbicidal effect on radish (Table 1); parameters: key: 0: not damaged; 5: completely killed; conditions: 20 days after application, score 0-5
# How it was run: as §1
# [4] = tested on: redroot pigweed (Amaranthus retroflexus); experiment: Pre-emergence application, herbicidal effect on redroot pigweed (Table 1); parameters: key: 0: not damaged; 5: completely killed; conditions: 20 days after application, score 0-5
# How it was run: as §1
# [5] = tested on: common purslane (Portulaca oleracea); experiment: Pre-emergence application, herbicidal effect on common purslane (Table 1); parameters: key: 0: not damaged; 5: completely killed; conditions: 20 days after application, score 0-5
# How it was run: as §1
# [6] = tested on: common lambsquarter (Chenopodium album); experiment: Pre-emergence application, herbicidal effect on common lambsquarter (Table 1); parameters: key: 0: not damaged; 5: completely killed; conditions: 20 days after application, score 0-5
# How it was run: as §1
# [7] = tested on: rice; experiment: Water application, phytotoxicity on rice (Table 2); parameters: key: 0: no effect; 1: very slightly affected; 2: slightly affected; 3: moderately affected; 4: considerably affected; 5: completely killed; conditions: 25 days, score 0-5
# How it was run: (§2)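 Paddy-soil pots flooded to paddy conditions; rice transplanted at 3-leaf stage, barnyard grass sown, broad-leaved weeds germinating spontaneously. Test compounds applied as wettable powder to soil under flooded water. Herbicidal effect and rice phytotoxicity scored 0–5 at 25 days after application.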
# [8] = tested on: barnyard grass (Echinochloa crus-galli); experiment: Water application, herbicidal effect on barnyard grass (Table 2); parameters: key: 0: not damaged; 5: completely killed; conditions: 25 days, score 0-5
# How it was run: as §2
# [9] = tested on: broad-leaved weeds, e.g., monochoria, false pimpernel and toothcup; experiment: Water application, herbicidal effect on broad-leaved weeds (Table 2); parameters: key: 0: not damaged; 5: completely killed; conditions: 25 days, score 0-5
# How it was run: as §2
Structure (SMILES),"Herbicidal effect, barnyard grass ([1]; 10 g./a.)","Herbicidal effect, barnyard grass ([1]; 20 g./a.)","Herbicidal effect, barnyard grass ([1]; 40 g./a.)","Herbicidal effect, large crabgrass ([2]; 10 g./a.)","Herbicidal effect, large crabgrass ([2]; 20 g./a.)","Herbicidal effect, large crabgrass ([2]; 40 g./a.)","Herbicidal effect, radish ([3]; 10 g./a.)","Herbicidal effect, radish ([3]; 20 g./a.)","Herbicidal effect, radish ([3]; 40 g./a.)","Herbicidal effect, redroot pigweed ([4]; 10 g./a.)","Herbicidal effect, redroot pigweed ([4]; 20 g./a.)","Herbicidal effect, redroot pigweed ([4]; 40 g./a.)","Herbicidal effect, common purslane ([5]; 10 g./a.)","Herbicidal effect, common purslane ([5]; 20 g./a.)","Herbicidal effect, common purslane ([5]; 40 g./a.)","Herbicidal effect, common lambsquarter ([6]; 10 g./a.)","Herbicidal effect, common lambsquarter ([6]; 20 g./a.)","Herbicidal effect, common lambsquarter ([6]; 40 g./a.)",Phytotoxicity on rice ([7]; 10 g/a),Phytotoxicity on rice ([7]; 20 g/a),other results
CCCOP(=O)(SCCC(C)C)SCC(=O)N1CCCCC1CC (stereo not drawn) [Compound 90],5,5,5,5,5,5,0,0,0,3,4,5,3,4,5,3,3,5,0,0,"Phytotoxicity on rice ([7]; 40 g/a): 1; Herbicidal effects, barnyard grass ([8]; 10 g/a): 5; Herbicidal effects, barnyard grass ([8]; 20 g/a): 5; Herbicidal effects, barnyard grass ([8]; 40 g/a): 5; Herbicidal effects, broad-leaved weeds ([9]; 10 g/a): 5; Herbicidal effects, broad-leaved weeds ([9]; 20 g/a): 5; Herbicidal effects, broad-leaved weeds ([9]; 40 g/a): 5"
CCOP(=O)(SCC(=O)N1CCCCC1CC)SC(C)C (stereo not drawn) [Compound 76],5,5,5,5,5,5,0,1,2,5,5,5,5,5,5,5,5,5,0,0,"Phytotoxicity on rice ([7]; 40 g/a): 0; Herbicidal effects, barnyard grass ([8]; 10 g/a): 5; Herbicidal effects, barnyard grass ([8]; 20 g/a): 5; Herbicidal effects, barnyard grass ([8]; 40 g/a): 5; Herbicidal effects, broad-leaved weeds ([9]; 10 g/a): 5; Herbicidal effects, broad-leaved weeds ([9]; 20 g/a): 5; Herbicidal effects, broad-leaved weeds ([9]; 40 g/a): 5"
CCOP(=O)(SCCC(C)C)SCC(=O)N1CCCCC1CC (stereo not drawn) [Compound 79],5,5,5,5,5,5,0,0,1,4,5,5,5,5,5,5,5,5,0,0,"Phytotoxicity on rice ([7]; 40 g/a): 1; Herbicidal effects, barnyard grass ([8]; 10 g/a): 5; Herbicidal effects, barnyard grass ([8]; 20 g/a): 5; Herbicidal effects, barnyard grass ([8]; 40 g/a): 5; Herbicidal effects, broad-leaved weeds ([9]; 10 g/a): 5; Herbicidal effects, broad-leaved weeds ([9]; 20 g/a): 5; Herbicidal effects, broad-leaved weeds ([9]; 40 g/a): 5"
CCCCOP(=O)(SCC(=O)N1CCCCC1CC)SC(C)CC (stereo not drawn) [Compound 96],4,5,5,5,5,5,0,0,0,3,4,5,3,4,5,3,4,5,0,0,"Phytotoxicity on rice ([7]; 40 g/a): 0; Herbicidal effects, barnyard grass ([8]; 10 g/a): 5; Herbicidal effects, barnyard grass ([8]; 20 g/a): 5; Herbicidal effects, barnyard grass ([8]; 40 g/a): 5; Herbicidal effects, broad-leaved weeds ([9]; 10 g/a): 5; Herbicidal effects, broad-leaved weeds ([9]; 20 g/a): 5; Herbicidal effects, broad-leaved weeds ([9]; 40 g/a): 5"
CCCCOP(=O)(SCC(=O)N1CCCCC1C)SCc1ccc(C)cc1 (stereo not drawn) [Compound 56],5,5,5,4,5,5,0,0,0,3,3,5,3,3,4,3,4,5,0,0,"Phytotoxicity on rice ([7]; 40 g/a): 0; Herbicidal effects, barnyard grass ([8]; 10 g/a): 5; Herbicidal effects, barnyard grass ([8]; 20 g/a): 5; Herbicidal effects, barnyard grass ([8]; 40 g/a): 5; Herbicidal effects, broad-leaved weeds ([9]; 10 g/a): 5; Herbicidal effects, broad-leaved weeds ([9]; 20 g/a): 5; Herbicidal effects, broad-leaved weeds ([9]; 40 g/a): 5"
CCOP(=O)(SC)SCC(=O)N1CCCCC1CC (stereo not drawn) [Compound 74],5,5,5,5,5,5,0,1,2,5,5,5,5,5,5,5,5,5,0,0,"Phytotoxicity on rice ([7]; 40 g/a): 0; Herbicidal effects, barnyard grass ([8]; 10 g/a): 5; Herbicidal effects, barnyard grass ([8]; 20 g/a): 5; Herbicidal effects, barnyard grass ([8]; 40 g/a): 5; Herbicidal effects, broad-leaved weeds ([9]; 10 g/a): 5; Herbicidal effects, broad-leaved weeds ([9]; 20 g/a): 5; Herbicidal effects, broad-leaved weeds ([9]; 40 g/a): 5"
CCCCCSP(=O)(OCCCC)SCC(=O)N1CCCCC1CC (stereo not drawn) [Compound 98],5,5,5,5,5,5,0,0,0,4,5,5,4,5,5,5,5,5,0,0,"Phytotoxicity on rice ([7]; 40 g/a): 0; Herbicidal effects, barnyard grass ([8]; 10 g/a): 5; Herbicidal effects, barnyard grass ([8]; 20 g/a): 5; Herbicidal effects, barnyard grass ([8]; 40 g/a): 5; Herbicidal effects, broad-leaved weeds ([9]; 10 g/a): 5; Herbicidal effects, broad-leaved weeds ([9]; 20 g/a): 5; Herbicidal effects, broad-leaved weeds ([9]; 40 g/a): 5"
CCOP(=O)(SCC(=O)N1CCCC(C)C1)SC(C)C (stereo not drawn) [Compound 22],4,5,5,4,5,5,0,0,0,3,4,5,4,4,4,4,4,5,0,0,"Phytotoxicity on rice ([7]; 40 g/a): 0; Herbicidal effects, barnyard grass ([8]; 10 g/a): 5; Herbicidal effects, barnyard grass ([8]; 20 g/a): 5; Herbicidal effects, barnyard grass ([8]; 40 g/a): 5; Herbicidal effects, broad-leaved weeds ([9]; 10 g/a): 5; Herbicidal effects, broad-leaved weeds ([9]; 20 g/a): 5; Herbicidal effects, broad-leaved weeds ([9]; 40 g/a): 5"
